How the values were obtained:
[1] = tested on: DIPGX7 (H3.3 K27M diffuse intrinsic pontine glioma line); assay: growth inhibition relative to DMSO (0) and positive control (1) (fraction); higher = more growth inhibition
Method: (§1)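 Paxalisib (GDC0084) x mirdametinib (PD0325901) dose matrix on pHGG cell lines and astrocyte controls, 7 days, adherent 384-well. CellTiter-Glo RLU was normalised (no log2) to fractional activity between DMSO (0) and the positive control (1). Each combination was tested in two plate orientations.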

[2] = tested on: iASTRO (astrocyte control); assay: as above
Method: as §1

O=C(NOC[C@H](O)CO)c1ccc(F)c(F)c1Nc1ccc(I)cc1F + CC1(C)OCCn2c1nc1c(N3CCOCC3)nc(-c3cnc(N)nc3)nc12 [GDC0084]
growth inhibition
Conditions	compound 1 concentration 0.009766 µM	compound 1 concentration 0.01953 µM	compound 1 concentration 0.03906 µM	compound 1 concentration 0.07812 µM	compound 1 concentration 0.15625 µM	compound 1 concentration 0.3125 µM	compound 1 concentration 0.625 µM	compound 1 concentration 1.25 µM	compound 1 concentration 5 µM	compound 1 concentration 20 µM
[1], compound 2 concentration 0.03906 µM	-0.0325	-0.0312	-0.0934	-0.145	-0.164	-0.126	-0.119	0.0102	0.288	0.312
[1], compound 2 concentration 0.07812 µM	0.189	0.113	0.0974	0.0816	-0.0134	0.0326	0.0363	0.178	0.344	0.313
[1], compound 2 concentration 0.15625 µM	0.43	0.379	0.335	0.264	0.267	0.238	0.296	0.364	0.563	0.467
[1], compound 2 concentration 0.3125 µM	0.611	0.641	0.589	0.561	0.514	0.483	0.563	0.627	0.793	0.747
[1], compound 2 concentration 0.625 µM	0.781	0.802	0.8	0.791	0.779	0.782	0.841	0.884	0.941	0.918
[1], compound 2 concentration 1.25 µM	0.874	0.865	0.876	0.884	0.893	0.906	0.934	0.96	0.982	0.983
[1], compound 2 concentration 5 µM	0.937	0.933	0.938	0.962	0.972	0.98	0.99	0.999	1	1
[1], compound 2 concentration 20 µM	0.977	0.987	0.989	0.994	0.998	1	1	1	1	1
[2], compound 2 concentration 0.03906 µM	0.0351	0.072	0.0628	0.082	0.097	0.097	0.102	0.0401	-0.0539	-0.0303
[2], compound 2 concentration 0.07812 µM	0.0868	0.0655	0.0861	0.0688	0.093	0.134	0.15	0.0961	0.0858	0.0424
[2], compound 2 concentration 0.15625 µM	0.123	0.128	0.113	0.0769	0.0999	0.115	0.0997	0.104	0.0381	0.0629
[2], compound 2 concentration 0.3125 µM	0.0584	0.0952	0.0549	0.0979	0.0838	0.126	0.158	0.146	0.164	0.196
[2], compound 2 concentration 0.625 µM	0.0444	0.0912	0.0357	0.0123	0.112	0.148	0.303	0.443	0.516	0.588
[2], compound 2 concentration 1.25 µM	0.21	0.214	0.279	0.319	0.44	0.568	0.731	0.784	0.811	0.836
[2], compound 2 concentration 5 µM	0.756	0.777	0.798	0.811	0.83	0.858	0.875	0.887	0.901	0.887
[2], compound 2 concentration 20 µM	0.822	0.806	0.821	0.841	0.849	0.873	0.889	0.901	0.9	0.909

CC1(C)OCCn2c1nc1c(N3CCOCC3)nc(-c3cnc(N)nc3)nc12 [GDC0084] + O=C(NOC[C@H](O)CO)c1ccc(F)c(F)c1Nc1ccc(I)cc1F [PD0325901]
growth inhibition
Conditions	compound 1 concentration 0.009766 µM	compound 1 concentration 0.01953 µM	compound 1 concentration 0.03906 µM	compound 1 concentration 0.07812 µM	compound 1 concentration 0.15625 µM	compound 1 concentration 0.3125 µM	compound 1 concentration 0.625 µM	compound 1 concentration 1.25 µM	compound 1 concentration 5 µM	compound 1 concentration 20 µM
[1], compound 2 concentration 0.03906 µM	-0.121	-0.103	-0.085	0.0493	0.217	0.56	0.762	0.886	0.945	0.998
[1], compound 2 concentration 0.07812 µM	-0.0496	9.09e-05	0.0209	0.0495	0.252	0.537	0.775	0.88	0.956	0.997
[1], compound 2 concentration 0.15625 µM	-0.0185	0.0149	0.038	0.0769	0.248	0.507	0.771	0.891	0.965	0.999
[1], compound 2 concentration 0.3125 µM	-0.0519	0.0198	0.0847	0.101	0.248	0.522	0.802	0.91	0.983	1
[1], compound 2 concentration 0.625 µM	0.0193	0.0541	0.102	0.141	0.301	0.534	0.825	0.938	0.992	1
[1], compound 2 concentration 1.25 µM	0.138	0.158	0.168	0.231	0.351	0.606	0.868	0.961	0.998	1
[1], compound 2 concentration 5 µM	0.215	0.278	0.311	0.354	0.555	0.784	0.933	0.986	1	1
[1], compound 2 concentration 20 µM	0.18	0.195	0.238	0.323	0.539	0.765	0.933	0.988	1	1
[2], compound 2 concentration 0.03906 µM	0.09	0.0454	0.118	0.094	0.0396	0.0144	-0.00856	0.184	0.758	0.807
[2], compound 2 concentration 0.07812 µM	0.121	0.0878	0.134	0.118	0.109	0.12	0.0894	0.264	0.802	0.813
[2], compound 2 concentration 0.15625 µM	0.0937	0.147	0.167	0.0963	0.0973	0.0664	0.0992	0.309	0.815	0.825
[2], compound 2 concentration 0.3125 µM	0.149	0.11	0.135	0.176	0.144	0.0844	0.154	0.446	0.833	0.846
[2], compound 2 concentration 0.625 µM	0.15	0.125	0.146	0.159	0.128	0.129	0.317	0.675	0.878	0.884
[2], compound 2 concentration 1.25 µM	0.155	0.123	0.103	0.0682	0.108	0.207	0.459	0.766	0.878	0.893
[2], compound 2 concentration 5 µM	0.108	0.0234	0.0231	0.0442	0.0662	0.219	0.546	0.791	0.875	0.891
[2], compound 2 concentration 20 µM	0.14	0.0807	0.0709	0.0677	0.0926	0.24	0.627	0.821	0.881	0.902

— the supplement of paper PMC8253809
